Laboratory results from patent US20090074815A1, “Immunomodulator Compounds as Vaccine Enhancers” (SCICLONE PHARMACEUTICALS, INC., priority 2005, published 2009).
Like-named read-outs stand apart in the source and are kept apart here.

Columns and labels:
neutrophils = experiment: Concentration and functional activity of neutrophils (phagocytosis, lysosomal activity, spontaneous and induced HCT test) before and after vaccination; format: in vivo, human
lymphocytes = format: in vivo, human
[1] = system: leukocytes and lymphocytes in peripheral blood; experiment: Concentration of leukocytes and lymphocytes in peripheral blood before and after vaccination; format: in vivo, human; details: After vaccination
[2] = system: IL-2 production by OvA-stimulated splenocytes; experiment: OvA-stimulated production of IL-2 by splenocytes of OvA-immunized mice; details: for activity at 0.0001 mg/kg / activity at 0.001 mg/kg / activity at 0.01 mg/kg: Mus musculus, Splenocyte, po; for activity at 0.0001 mg/kg: 0.1 μg/kg per os; for activity at 0.001 mg/kg: 1.0 μg/kg per os; for activity at 0.01 mg/kg: 10.0 μg/kg per os; for Production of IL-2 by splenocytes: OvA/Alum, 0.1 μg/kg i/p
Procedure: The OvA was administered subcutaneously to the crest in a volume of 200 μl. Mice were immunized on day 1 with OvA in complete Freund's adjuvant (CFA; Sigma) and on day 15 with the antigen in incomplete Freund's adjuvant (IFA; Sigma). The immune response was analyzed on day 29. Mice were also immunized with 10 μg/mouse of OvA using Alum as an adjuvant.
Thymuses and spleens from mice of each treatment group were pooled, and then minced with scissors. The minced tissues were suspended in sterile PBS to form cell suspensions, filtered through a double gauze layer and centrifuged. Cells were washed twice with PBS, re-suspended in RPMI-1640 (Sigma) with 2.0 mM of L-glutamine, 50 μM of mercaptoethanol, and 10 μg/ml of gentamycin (complete medium); and cell counts were made. (The splenocyte suspension was washed with a 0.86% solution of NH4Cl to pre-lyse erthrocytes.)
Assessment of Mitogen- and Antigen-Induced Production of Cytokines: Thymic cells (1×10^6/well) in complete medium with 2% FCS were stimulated with ConA (0, 1, and 2 μg/ml). Splenocytes (1×10^6/well) in complete medium with 5% FCS were stimulated with ConA (0, 1, and 5 μg/ml) and with OvA (0-100 μg/ml). […] Supernatants from OvA-stimulated cultures were collected after 72 hours. Supernatants from both cultures were frozen, and kept at 20° C. Concentrations of IL-2, IL-4, IL-10, IL-12R40 and IFNγ in the supernatants were determined by solid-phase EIA with EIA Expansion Kits, available from BD Biosciences (formerly Pharmingen), in accordance with the manufacturer's instructions.

[3] = Group 2 (patients with infectious syndrome, hepatitis B vaccination with SCV-07), after vaccination, n = 16, M ± m
[4] = Healthy of group 3 after vaccination
[5] = Patients of group 2 (SCV-07 + vaccine), After vaccination
[6] = Patients of group 2 (SCV-07 + vaccine)
[7] = read-out: Production of IL-2 by splenocytes, % (% of control), OvA/Alum, OvA 0 μg/ml
[8] = read-out: Production of IL-2 by splenocytes, % (% of control), OvA/Alum, OvA 1 μg/ml
[9] = read-out: Production of IL-2 by splenocytes, % (% of control), OvA/Alum, OvA 10 μg/ml
[10] = read-out: Production of IL-2 by splenocytes, % (% of control), OvA/Alum, OvA 25 μg/ml
[11] = read-out: Production of IL-2 by splenocytes, % (% of control), OvA/Alum, OvA 100 μg/ml
[12] = read-out: Production of IL-2 by splenocytes, % (% of control), OvA/FA, OvA 0 μg/ml
[13] = read-out: Production of IL-2 by splenocytes, % (% of control), OvA/FA, OvA 1 μg/ml
[14] = read-out: Production of IL-2 by splenocytes, % (% of control), OvA/FA, OvA 10 μg/ml
[15] = read-out: Production of IL-2 by splenocytes, % (% of control), OvA/FA, OvA 25 μg/ml
[16] = read-out: Production of IL-2 by splenocytes, % (% of control), OvA/FA, OvA 100 μg/ml

N[C@H](CCC(=O)N[C@@H](Cc1c[nH]c2ccccc12)C(=O)O)C(=O)O [SCV-07, γ-D-glutamyl-L-tryptophan]
Activity of phagocytosis % (neutrophils; [3]): 46.88 ± 4.92%
Functional reserve, conv. units (neutrophils; [3]): 1.929 ± 0.225 conv. units
Induced HCT-test, activity, % (neutrophils; [3]): 48.63 ± 4.62%
Induced HCT-test, index, conv. units (neutrophils; [3]): 0.732 ± 0.08 conv. units
Intensity of phagocytosis, conv. units (neutrophils; [3]): 1.44 ± 0.189 conv. units
Lysosomal activity, conv. units (neutrophils; [3]): 198.7 ± 22.5 conv. units
Neutrophils % (neutrophils; [3]): 56.56 ± 2.07%
Neutrophils × 10^9/l (neutrophils; [3]): 3.403 ± 0.27 × 10^9/l
Phagocytary number, conv. units (neutrophils; [3]): 2.92 ± 0.255 conv. units
Spontaneous HCT-test, activity, % (neutrophils; [3]): 34.50 ± 5.62%
Spontaneous HCT-test, index, conv. (neutrophils; [3]): 0.50 ± 0.093 conv.
spontaneous activity and intensity of neutrophils in the HCT reaction (neutrophils; immunodeficient subjects with SCV-07 versus vaccine only and versus healthy, p<0.05): significantly lower
activities of neutrophils in the induced HCT test (neutrophils; subjects who received SCV-07 versus vaccinated without immunomodulator, after vaccination, p<0.05): significantly higher
CD3+ (%) (lymphocytes; [4]): 33.10 ± 1.88%
CD4+ (%) (lymphocytes; [4]): 22.86 ± 1.94%
CD4+/CD8+ conv. units (lymphocytes; [4]): 1.203 ± 0.094 conv. units
CD8+ (%) (lymphocytes; [4]): 19.71 ± 1.53%
CD16+ (%) (lymphocytes; [4]): 15.19 ± 1.24%
CD95+ (%) (lymphocytes; [4]): 14.62 ± 1.60%
CD3+ (%) (lymphocytes; [5]): 29.60 ± 2.41%
CD4+ (%) (lymphocytes; [5]): 20.13 ± 1.65%
CD4+/CD8+ conv. units (lymphocytes; [5]): 1.111 ± 0.086 conv. units
CD8+ (%) (lymphocytes; [5]): 18.27 ± 1.01%
CD16+ (%) (lymphocytes; [5]): 13.07 ± 1.18%
CD95+ (%) (lymphocytes; [5]): 12.60 ± 1.18%
Leukocytes × 10^9/l ([1]; Healthy subjects (Group III)): 6.04 ± 0.31 10^9/l
Lymphocytes % ([1]; Healthy subjects (Group III)): 19.05 ± 1.13%
Lymphocytes × 10^9/l ([1]; Healthy subjects (Group III)): 1.19 ± 0.11 10^9/l
Lymphocytes % [1, 6]: 27.81 ± 2.04%
Lymphocytes × 10^9/l [1, 6]: 1.608 ± 0.096 10^9/l
Leukocytes × 10^9/l ([1]; Patients of group 2 (infectious syndrome, SCV-07 1 mg i.m. + hepatitis B vaccine)): 5.938 ± 0.351 10^9/l
activity at 0.0001 mg/kg [2, 7]: 100%
activity at 0.0001 mg/kg [2, 8]: 94.3%
activity at 0.0001 mg/kg [2, 9]: 72%
activity at 0.0001 mg/kg [2, 10]: 148%
activity at 0.0001 mg/kg [2, 11]: 52.5%
activity at 0.001 mg/kg [2, 7]: 100%
activity at 0.001 mg/kg [2, 8]: 57.7%
activity at 0.001 mg/kg [2, 9]: 113%
activity at 0.001 mg/kg [2, 10]: 75.4%
activity at 0.001 mg/kg [2, 11]: 74.7%
activity at 0.01 mg/kg [2, 7]: 100%
activity at 0.01 mg/kg [2, 8]: 191%
activity at 0.01 mg/kg [2, 9]: 87.2%
activity at 0.01 mg/kg [2, 10]: 75.6%
activity at 0.01 mg/kg [2, 11]: 104%
activity at 0.0001 mg/kg [2, 12]: 100%
activity at 0.0001 mg/kg [2, 13]: 32.4%
activity at 0.0001 mg/kg [2, 14]: 43.9%
activity at 0.0001 mg/kg [2, 15]: 119%
activity at 0.0001 mg/kg [2, 16]: 44.8%
activity at 0.001 mg/kg [2, 12]: 100%
activity at 0.001 mg/kg [2, 13]: 67.6%
activity at 0.001 mg/kg [2, 14]: 248%
activity at 0.001 mg/kg [2, 15]: 125%
activity at 0.001 mg/kg [2, 16]: 231%
activity at 0.01 mg/kg [2, 12]: 100%
activity at 0.01 mg/kg [2, 13]: 49.2%
activity at 0.01 mg/kg [2, 14]: 187%
activity at 0.01 mg/kg [2, 15]: 176%
activity at 0.01 mg/kg [2, 16]: 293%
Production of IL-2 by splenocytes ([2]; OvA 0 μg/ml): 163.0 pg/mL
Production of IL-2 by splenocytes ([2]; OvA 1 μg/ml): 190.3 pg/mL
